Values quoted from earlier work as cited in US20230201308A1, “TREATMENT OF CORONAVIRUS INFECTION WITH […]” (Eiger Biopharmaceuticals, Inc., priority 2020, published 2023).

Test system: SARS-CoV-2
Conditions: BLAZE trial; placebo group 15%; cited from earlier work

Substance: bamlanivimab
- hospitalization in the treatment group: placebo group to 4% in the treatment group. Despite the more potent antiviral effect
